Molecular target: T1, Cloned Human Serotonin Receptor, Subtype 7 (h5HT7) (Homo sapiens, UniProt P34969)
T1 construct: purchased PerkinElmer 6120512; host or cells: CHO cells
Assay: Radioligand binding assay, [125I]LSD, cloned human 5-HT7 receptor expressed in CHO cells (Flashplate)
Conditions: not given
Method: Radioligand binding assays were performed using the Cloned Human Serotonin Receptor, Subtype 7 (h5HT7), expressed in CHO cells, coated on Flashplate (Basic FlashPlate Cat.: SMP200) from PerkinElmer (Cat.: 6120512). The protocol assay was essentially the recommended protocol in the Technical Data Sheet by PerkinEmer Life and Analytical Sciences. The Mass membrane protein/well was typically […] and the Receptor/well was about 9-10 fmoles. The Flashplate were let equilibrate at room temperature for one hour before the addition of the components of the assay mixture. The binding buffer was: 50 mM Tris-HCl, pH 7.4, containing 10 mM MgCl2, 0.5 mM EDTA and 0.5% BSA. The radioligand was [^125I]LSD at a final concentration of 0.82 nM. Nonspecific binding was determined with 50 µM of Clozapine. The assay volume was 25 l. TopSeal-A were applied onto Flashplate microplates and they were incubated at room temperature for 240 minutes in darkness. The radioactivity were quantified by liquid scintillation spectrophotometry (Wallac 1450 Microbeta Trilux) with a count delay of 4 minutes prior to counting and a counting time of 30 seconds per well. Competition binding data were analyzed by using the LIGAND program (Munson and Rodbard, LIGAND: A versatile, computerized approach for characterization of ligandbinding systems. Anal. Biochem. 107: 220-239, 1980) and assays were performed in triplicate determinations for each point.

T1 sequence (P34969 whole entry): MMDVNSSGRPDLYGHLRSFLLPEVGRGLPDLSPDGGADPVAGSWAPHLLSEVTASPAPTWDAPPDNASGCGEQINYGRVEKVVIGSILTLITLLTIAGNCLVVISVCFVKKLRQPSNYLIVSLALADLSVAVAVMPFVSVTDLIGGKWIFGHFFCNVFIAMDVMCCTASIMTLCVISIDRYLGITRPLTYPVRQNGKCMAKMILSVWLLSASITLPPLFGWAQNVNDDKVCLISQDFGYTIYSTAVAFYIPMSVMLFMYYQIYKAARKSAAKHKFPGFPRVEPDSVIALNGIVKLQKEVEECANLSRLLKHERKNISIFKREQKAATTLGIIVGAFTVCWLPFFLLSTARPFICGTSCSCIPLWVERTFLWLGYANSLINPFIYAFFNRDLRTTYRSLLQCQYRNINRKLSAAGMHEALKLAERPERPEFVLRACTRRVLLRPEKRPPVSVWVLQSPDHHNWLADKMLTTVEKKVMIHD

| Structure (SMILES) | Ki [nM] |
| --- | --- |
| CCc1c(C)nn(C)c1-c1ccc(OC)c(CCN(C)C)c1 [Example 3, 2-(5-(4-ethyl-1,3-dimethyl-1H-pyrazol-5-yl)-2-methoxyphenyl)-N,N-dimethyl ethanamine] | 599 |
| COc1ccc(-c2c(C)c(C)nn2C)cc1CCN(C)C [Example 9, 2-(2-methoxy-5-(1,3,4-trimethyl-1H-pyrazol-5-yl)phenyl)-N,N-dimethylethanamine] | 113 ± 2.6 |
| CCn1nc(C)c(C)c1-c1ccc(OC)c(CCN(C)C)c1 [Example 28, 2-(5-(1-ethyl-3,4-dimethyl-1H-pyrazol-5-yl)-2-methoxyphenyl)-N,N-dimethyl ethanamine] | 81.9 |
| COc1ccc(-c2c(C)c(C)nn2C(C)C)cc1CCN(C)C [Example 31, 2-(5-(1-isopropyl-3,4-dimethyl-1H-pyrazol-5-yl)-2-methoxyphenyl)-N,N-dimethyl ethanamine] | 83.1 |

Same assay, conditions: h5HT7 expressed in CHO cells; radioligand [125I]LSD 0.82 nM; nonspecific binding with clozapine; triplicate determinations; read-out: 5-HT7 Ki

| Structure (SMILES) | Ki [nM] |
| --- | --- |
| CCc1c(C)nn(C)c1-c1cccc(CCN(C)C)c1 [Example 2, 2-(3-(4-ethyl-1,3-dimethyl-1H-pyrazol-5-yl)phenyl)-N,N-dimethylethanamine] | 597 |
| CCc1c(C)nn(C)c1-c1ccc(O)c(CCN(C)C)c1 [Example 4, 2-(2-(dimethylamino)ethyl)-4-(4-ethyl-1,3-dimethyl-1H-pyrazol-5-yl)phenol] | 577 ± 81.6 |
| Cc1nn(C)c(-c2cccc(CCN(C)C)c2)c1C [Example 8, N,N-dimethyl-2-(3-(1,3,4-trimethyl-1H-pyrazol-5-yl)phenyl)ethanamine] | 261 ± 102 |
| Cc1nn(C)c(-c2ccc(O)c(CCN(C)C)c2)c1C [Example 10, 2-(2-(dimethylamino)ethyl)-4-(1,3,4-trimethyl-1H-pyrazol-5-yl)phenol] | 102 |
| CNCCc1cc(-c2c(C)c(C)nn2C)ccc1O [Example 11, 2-(2-(methylamino)ethyl)-4-(1,3,4-trimethyl-1H-pyrazol-5-yl)phenol] | 23.5 ± 5.2 |
| COc1ccc(-c2c(-c3ccccc3)c(C)nn2-c2ccccc2)cc1CCN(C)C [Example 19, 2-(2-methoxy-5-(3-methyl-1,4-diphenyl-1H-pyrazol-5-yl)phenyl)-N,N-dimethyl ethanamine] | 447 ± 64.8 |
| COc1ccc(-c2c(C)c(C)nn2-c2ccccc2)cc1CCN(C)C [Example 22, 2-(5-(3,4-dimethyl-1-phenyl-1H-pyrazol-5-yl)-2-methoxyphenyl)-N,N-dimethyl ethanamine] | 391 |
| Cc1nn(-c2ccccc2)c(-c2ccc(O)c(CCN(C)C)c2)c1C [Example 23, 4-(3,4-dimethyl-1-phenyl-1H-pyrazol-5-yl)-2-(2-(dimethylamino)ethyl)phenol] | 611 |
| COc1ccc(-c2c3c(nn2-c2ccccc2)CCCC3)cc1CCN(C)C [Example 25, 2-(2-methoxy-5-(2-phenyl-4,5,6,7-tetrahydro-2H-indazol-3-yl)phenyl)-N,N-dimethyl ethanamine] | 420 |
| CCn1nc(C)c(C)c1-c1ccc(O)c(CCN(C)C)c1 [Example 29, 2-(2-(dimethylamino)ethyl)-4-(1-ethyl-3,4-dimethyl-1H-pyrazol-5-yl)phenol] | 102 |
| Cc1nn(C(C)C)c(-c2cccc(CCN(C)C)c2)c1C [Example 30, 2-(3-(1-isopropyl-3,4-dimethyl-1H-pyrazol-5-yl)phenyl)-N,N-dimethylethanamine] | 300 |
| Cc1nn(C(C)C)c(-c2ccc(O)c(CCN(C)C)c2)c1C [Example 32, 2-(2-(dimethylamino)ethyl)-4-(1-isopropyl-3,4-dimethyl-1H-pyrazol-5-yl)phenol] | 150 |
| Cc1nn(CC(F)(F)F)c(-c2cccc(CCN(C)C)c2)c1C [Example 33, 2-(3-(3,4-dimethyl-1-(2,2,2-trifluoroethyl)-1H-pyrazol-5-yl)phenyl)-N,N-dimethyl ethanamine] | 527 |
| COc1ccc(-c2c(C)c(C)nn2CC(F)(F)F)cc1CCN(C)C [Example 34, 2-(5-(3,4-dimethyl-1-(2,2,2-trifluoroethyl)-1H-pyrazol-5-yl)-2-methoxyphenyl)-N,N-dimethyl ethanamine] | 146 |
| Cc1nn(CC(F)(F)F)c(-c2ccc(O)c(CCN(C)C)c2)c1C [Example 35, 4-(3,4-dimethyl-1-(2,2,2-trifluoroethyl)-1H-pyrazol-5-yl)-2-(2-(dimethylamino)ethyl)phenol] | 320 |

Source: patent US20120322842A1, “HETEROCYCYL-SUBSTITUTED-ALKYLAMINOPHENYL DERIVATIVES, THEIR PREPARATION AND USE AS MEDICAMENTS” (LABORATORIOS DEL DR. ESTEVE, S.A., priority 2009, published 2012)
